Where two headings read alike, the source gives them in different places.
How the values were obtained:
[1] = tested on: Normal human epidermal keratinocyte cells (NHEK); assay: Growth inhibition on cultured human epidermal keratinocyte cells, Coulter counter method; type: cell-based; settings: for Number of cells/cm^2: control 95.5
Method: (§1) Normal human epidermal keratinocyte cells
(§2) (NHEK: human penile prepuce originated secondary cultured cells)
(§3) (1) NHEK was subcultured according to the instruction described in the manual for Epi Pack, to obtain tertiary subcultured cells. Epi Pack medium on arrival was exchanged by fresh K-C,M to which added attached bovine pituitary gland extract (BPE), then NHEK was cultured at 37° C. and on the first day, tertiary cultivation was performed under the same conditions.
On the day of starting initial cultivation:
NHEK, 2500 cells/cm^2 (5000 cell/well), was inoculated in six 24-well culture plates.
(§4) Cultured, day 5, day 7 and day 9: Photographs were taken on the central part of the two plates of 24-well culture plate, and calculated the number of cells.
On the remaining other plates, the medium was exchanged and mizoribine was added. (amount added: the same as above)
Method of calculating number of cells
On the cultivation, day 5, day 7 and day 9, respectively, one plate of 24-well culture plate was applied for calculating number of cells by Coulter counter, and the other one plate was applied for dye uptake method.
(a) Measurement by Coulter counter
Each well: washed with 0.2 ml of HEPES buffer saline
add 0.2 ml of trypsin/EDTA solution,
allow to stand at room temperature for 10 minutes,
then tap the 24-well culture plate by solid face to remove
added 0.3 ml of trypsin neutralization solution and separated
the cells by pipetting.
calculation of cells by Coulter counter
(counted particles over 7 μm .phi.)

[2] = tested on: Normal human epidermal keratinocyte cells (NHEK); assay: Microscopical observation of cultured keratinocyte cells; type: cell-based; settings: 0.8 and 4 μg/ml, days 5, 7, 9; ×76.5
Method: as §1, §2, §3, §4
Magnification of microscopic photographs is ×76.5 in each case.

psoriasis vulgaris = assay: Clinical trial on treatment of psoriasis (PASI, adverse effect, overall improvement, usefulness); type: in vivo, human; design: key to usefulness: 1: extremely useful; 2: useful; 3: slightly useful; 4: useless; 5: worse; key to overall improvement rate: 1: significantly improved; 2: improved; 3: slightly improved; 4: no change; 5: exacerbation; settings: 300 mg/day oral
Description: 2. Subject: Patients of psoriasis.
(1) Psoriasis vulgaris with median grade which satisfied within the following standard.
a) No consideration for the distinction of sex, inpatient and outpatient.
b) aged over 15 and below 70.
c) PASI [Psoriasis area and Severity Index; Darmtologica, 157; 238-244, 1978: Table 4] over 20 at initial stage of the test.
(2) Following patients are omitted.
b) patients who have suffered with severe bacterial, viral or mycotic infection.
c) person with complication or anamesis of malignant tumor.
d) person with cardiac disorder, renal disorder, blood disorder, gastrointestinal bleeding, peptic ulcer, and other serious complication, and anamesis.
e) a person in pregnancy or in a lactation, and who suspects being pregnant.
f) in addition, persons who are determined by the doctors-in-charge as unfit to participate.
2) Term for dosage: 6 weeks
3) Prohibited other concomitant drugs.
Concomitant use of the following preparation and others are prohibited.
a) Oral dosage of methotrexate, other immunosuppressant, etretinate and steroid preparations.
b) Ultraviolet treatment.
c) Other medicament which seem to be effective for psoriasis [Chinese indigenous medicine (Kampo-Yaku), anti-allergic drug, etc.]
2) Calculation method of PASI:
PASI=0.1 (Eh+Ih+Dh)×Ah+0.3 (Et+It+Dt)×At+0.2 (Eu+Iu+Du)×Au+0.4 (El+Il+Dl)×Al
During the period of administration of the drug, accompanied symptoms, which have newly appeared and were thought to be closely related to and can not be denied with the relation for the administered medicament, are checked and searched in details of the fact, the day appeared, the day disappeared, degree, treatment, result and relation with the test drug, and studied the presence of adverse effect.
On the treatment of administration of the drug after 6 weeks, the results were evaluated.
Considering the progress of PASI, following five degrees of evaluation were applied as compared with the condition before administration.
Considering the overall improvement and safety evaluation such as adverse effect, following five degrees of evaluation were applied.

[3] = tested on: Normal human epidermal keratinocyte cells (NHEK); assay: Growth inhibition on cultured human epidermal keratinocyte cells, Coulter counter method; type: cell-based; settings: mizoribine over 20 μg/ml, constant level; initial concentration 2.5×10^3 cells/ml
mice = settings: cited from earlier work
rats = settings: cited from earlier work
[4] = in vivo; cited from earlier work
[5] = clinical trials; cited from earlier work
[6] = rat; cited from earlier work
[7] = cited from earlier work
[8] = tested on: rejection of the transplantation of an organ such as kidney; settings: cited from earlier work
[9] = tested on: Normal human epidermal keratinocyte cells (NHEK); assay: Growth inhibition on cultured human epidermal keratinocyte cells, dye uptake method

With `NC(=O)c1ncn([C@@H]2O[C@H](CO)[C@@H](O)[C@H]2O)c1O` [Mizoribine, 4-carbamoyl-1-β-D-ribofuranosyl-imidazolium-5-olate] as the molecule, how does the “Number of cells/cm^2” value ([1]; 0.8 μg/ml, cultivation day 5, Coulter counter) read?
Its value is 69.7 ×10^3 cells/cm^2.

And the growth inhibition ([1]; 4 μg/ml)?
The growth inhibition was “significant growth inhibition was observed and cells were grown extremely slowly”.

What about the “Number of cells/cm^2” value ([1]; 4 μg/ml, cultivation day 5, Coulter counter) of the same molecule?
Its value is 8.6 ×10^3 cells/cm^2.

And the growth inhibition ([1]; 8 μg/ml)?
Its growth inhibition is “significant growth inhibition was observed”.

And the “Number of cells/cm^2” value ([1]; 20 μg/ml, cultivation day 5, Coulter counter)?
Its value is 4.5 ×10^3 cells/cm^2.

And the inhibition at 0.8 µg/mL ([1]; Homo sapiens, NHEK, 120 h, 0.8 μg/ml, cultivation day 5, Coulter counter, read-out: Inhibition rate)?
Its inhibition at 0.8 µg/mL is 27%.

What about the inhibition at 4 µg/mL ([1]; Homo sapiens, NHEK, 120 h, 4 μg/ml, cultivation day 5, Coulter counter, read-out: Inhibition rate) of the same molecule?
The inhibition at 4 µg/mL was 91%.

And the inhibition at 20 µg/mL ([1]; Homo sapiens, NHEK, 120 h, 20 μg/ml, cultivation day 5, Coulter counter, read-out: Inhibition rate)?
The inhibition at 20 µg/mL was 95%.

And the “inhibition of growth of human epidermal keratinocyte cells at concentration presumed to be reached in clinical use” value ([1]; blood level approximately 1 μg/ml)?
The value was “effective for significant inhibition of growth of human epidermal keratinocyte cells”.

What about the morphology of cells [2] of the same molecule?
Its morphology of cells is “changed widely expanded shape”.

And the overall improvement rate (psoriasis vulgaris; after 6 weeks)?
Its overall improvement rate is 2.

What about the usefulness (psoriasis vulgaris; after 6 weeks, overall improvement and safety) of the same molecule?
The usefulness was 2.

What about the Adverse effect (psoriasis vulgaris; individual patients No. 1-4, 6 weeks) of the same molecule?
The Adverse effect was “None”.

What about the PASI post (psoriasis vulgaris; patient No. 1, PASI pre 20, 6 weeks) of the same molecule?
The PASI post was 12.

What about the PASI post (psoriasis vulgaris; patient No. 2, PASI pre 41.4, 6 weeks) of the same molecule?
The PASI post was 20.

What about the PASI post (psoriasis vulgaris; patient No. 3, PASI pre 24.3, 6 weeks) of the same molecule?
Its PASI post is 14.

And the PASI post (psoriasis vulgaris; patient No. 4, PASI pre 21, 6 weeks)?
The PASI post was 12.

And the number of cells [3]?
Its number of cells is “approximately 4×10^3 cells/ml”.

And the LD50 (mice; female, i.m.)?
The LD50 was over 2800 mg/kg.

What about the LD50 (mice; female, i.v.) of the same molecule?
Its LD50 is over 3042 mg/kg.

What about the LD50 (mice; female, p.o.) of the same molecule?
The LD50 was over 4883 mg/kg.

And the LD50 (mice; female, s.c.)?
The LD50 was over 4883 mg/kg.

And the LD50 (mice; male, i.m.)?
The LD50 was over 2800 mg/kg.

What about the LD50 (mice; male, i.v.) of the same molecule?
The LD50 was over 3042 mg/kg.

And the LD50 (mice; male, p.o.)?
The LD50 was over 4883 mg/kg.

What about the LD50 (mice; male, s.c.) of the same molecule?
Its LD50 is over 4883 mg/kg.

What about the LD50 (rats; female, i.m.) of the same molecule?
Its LD50 is over 2800 mg/kg.

What about the LD50 (rats; female, i.v.) of the same molecule?
The LD50 was over 2606 mg/kg.

What about the LD50 (rats; female, s.c.) of the same molecule?
Its LD50 is over 3975 mg/kg.

And the LD50 (rats; male, i.m.)?
Its LD50 is over 2800 mg/kg.

And the LD50 (rats; male, i.v.)?
Its LD50 is over 2572 mg/kg.

And the LD50 (rats; male, p.o.)?
The LD50 was over 3100 mg/kg.

And the LD50 (rats; male, s.c.)?
Its LD50 is over 4161 mg/kg.

And the blood accumulation residue [4]?
The blood accumulation residue was “lower blood accumulation residue”.

And the nephrotoxicity [4]?
The nephrotoxicity was “no nephrotoxicity”.

What about the transfer into brain [4] of the same molecule?
The transfer into brain was “less transfer into brain”.

And the Blood level [5]?
The Blood level was “approximately 1 μg/ml”.

And the “Dermal level compared with plasma level” value [6]?
Its value is “almost equal in plasma level”.

What about the solubility in water [7] of the same molecule?
Its solubility in water is “easily soluble in water”.

And the “immunosuppressive activity / rejection of organ transplantation” value [8]?
Its value is “suppresses the rejection of the transplantation of an organ such as kidney”.

What about the “growth inhibition rate, dye uptake method compared with Coulter counter method” value ([9]; mizoribine addition) of the same molecule?
The value was “slightly lower growth inhibition rate”.

What about the OD665 value ([9]; where no difference in number of cells vs control by Coulter counter, lower level of concentration) of the same molecule?
Its OD665 value is “Significant increase in the value at OD665”.
